The values below come from US20250041377A1, “PHARMACEUTICAL USE” (ENLITISA (SHANGHAI) PHARMACEUTICAL CO., LTD., priority 2018, published 2025).

Where a SMILES comes first, the peptide text is derived from it. Where no end group is shown, it is not given here. [ ]: non-standard residue; d: D form. Dopa = N[C@@H](Cc1ccc(O)c(O)c1)C(=O)O; Hyp = O=C(O)[CH]1C[CH](O)CN1; 3Hyp = 3-hydroxyproline

What all share (assay type): in vivo, C57BL/6 mice
Assay [1] deals with carrageenan-induced acute inflammation in subcutaneous air pouch. Description: Air pouch model, histological scores of skin biopsies. Further details: Fibroplastic proliferation score: scale not given here. As to conditions: for Fibroplastic proliferation score / Inflammation score / Edema Score: 0.6 mg/mL, 300 μg/mouse injected into air pouch 1 hour before carrageenan; for Inflammation score: HE slices scored 1-3 points; for Edema Score: scored 1-3 points; for Sum: sum of scores, 300 μg/mouse into air pouch. The method, then: Healthy adult male C57BL/6 mice weighing between 20 and 30 g were supplied by Nanjing Biomedicial Research Institute of Nanjing University (NBRI). Prior to any experiments being conducted, mice were housed under standardized conditions (at a constant temperature of 22±2° C., with alternating 12 hour periods of light and darkness), and were fed on a standard mouse diet with water, for about a week.
General anesthesia was induced using intraperitoneal 3% chloral hydrate (Sinopharm Chemical Reagent Co., Ltd., Shanghai, China; 1 mL/10 g of body weight). The hair of the entire dorsum was shaved and depilated 1 day before sterile air injection.
Air pouches were produced by subcutaneous injection of sterile air (5 mL) into the intrascapular area of the mice. After three days, another injection of air (3 mL) was performed to maintain the pouches. In order to induce acute inflammation, three days after this final injection, animals received an injection of sterile carrageenan solution (CP Kelco, Taixing, Jiangsu Province, China. 1%, 0.5 mL; produced by adding 0.1 g of carrageenan powder into a beaker containing 10 mL of 0.9% saline solution and stirring). Mice were pre-treated with test samples or vehicle 1 hour before and 23 hours after the carrageenan injection into the subcutaneous air pouch. Animals were sacrificed 24 hours after the carrageenan injection.
Skin biopsies were taken from the air pouches. A part of the biopsy was fixed in formalin (produced by adding ultra pure water to 50 mL of a 40% formaldehyde solution (Nanchang Rain Dew Experimental Equipment Co., Ltd., Nanchang, Hubei Province, China) up to a total volume of 500 mL) and analyzed by histological embedding in paraffin wax, sectioning and staining.
After conducting some preliminary experiments to validate the model, an experiment was conducted in which mice were treated by administering test samples or vehicle in accordance with Table 1 below.
All the substances listed in Table 1 were administrated topically by directly injecting into the air pouches.
The histological specimens were analyzed and an inflammation score, an activity score (i.e. the number and density of neutrophils shown in pathological slides, indicating the degree of inflammation and, in the case of open wound and infective diseases, the degree of infection), an edema score and a fibroblast proliferation score were estimated as follows.
The HE stained slices were observed under an optical microscope and were scored (1, 2 or 3 points) according to the perceived inflammation level (in cases showing only a small amount of inflammatory cells scattered in the area-1 point (mild); in cases where many inflammatory cells were observed-2 points (moderate); and, in cases with diffuse infiltration-3 points (severe). A similar scoring system was employed for edema levels (3 points for most severe and 1 point for mild) after overall observation. Scores for neutrophils employed the same methodology as that employed for inflammatory cells.

Assay [2] deals with full thickness skin wound on the back. Description: Acute wound model, remaining wound area. As to conditions: for ratio of remaining wound area of initial wound: ± SD. As to the method: 6-8 weeks old male C57BL/6 mice were supplied by Changzhou Cvens Experimental Animal Co. Ltd (Changzhou, Jiangsu Province, China). Prior to any experiments being conducted, mice were housed under standardized conditions (at a constant temperature of 22±2° C., with alternating 12 hour periods of light and darkness), and were fed on a standard mouse diet with water, for about a week.
General anesthesia was induced using intraperitoneal 3% chloral hydrate (1 mL/10 g of body weight). The hair on the back was shaved by a baby hair shaver and depilated with cream. The skin area was wiped and sterilized with 75% alcohol twice.
An EMS skin biopsy punch (Electron Microscopy Sciences, P.O. Box 550, 1560 Industry Road, Hatfield, PA, USA) with a 18 mm diameter was used to make a round wound on the back. The full thickness of skin was removed and the depth of the wound reached the fascia. Wounds were left open without a suture.
(§1) The model group was given same amount of normal saline. There were 8 mice in each group.
Recombinant Human Epidermal Growth Factor (rhEGF, Shanghai Haohai Biological Technology Co. Ltd, 23/F, Shanghai, China) was purchased and prepared according to the manufacturer's instructions. The lyophilized rhEGF powder (100000 IU/vial) was dissolved in 20 mL of normal saline to make a solution with a concentration of 5000 IU/mL. The working dose of rhEGF for this experiment was 1285 IU/wound.
For this experiment, Compound A was also obtained from GL Biochem (Shanghai) Ltd. The peptide powders were stored at −20° C. and dissolved in saline at concentrations of 61.8 μg/mL (Compound A), and 61 μg/mL (Compound B). 50 μL of the solutions were applied onto the wound surfaces.
Wounds were dressed with gauze and transparent dresser after drug administration. Photographs were taken for each wound every other day from Day 0. Photos were scanned into a computer, and wound areas calculated using ImageJ image analysis software (National Institutes of Health, […]).
The unhealed wound area was expressed as a percentage of the original wound area: […]
where A0 and At refer to the initial area at Day 0 and the wound area at the date of measurement (time t), respectively.

Assay [3] concerns Hyp, VEGF and TGF-β1 in wound tissue. Kind of assay: Acute wound model, ELISA of wound tissue. As to conditions: for wound Hyp content (Mean): indicator of collagen regeneration; for TGF-β1 content (Mean): wound tissue.
From the text: as §1
Samples were taken at Day 4 and Day 7 post-wound infliction. The mice were sacrificed and the wound tissue taken by the same biopsy punch used to create the wound. Then 5 mm of tissue was cut off from the center of the sample and was preserved in 10% neutral buffered formalin (Nanchang Rain Dew Experimental Equipment Co., Ltd., Nanchang, Hubei Province, China), and analyzed by histological embedding (HE) in paraffin wax, sectioning and staining.
The rest of the samples were stored at −80° C. for further analysis. Tissue was cut into small pieces and liquid nitrogen was added to increase brittleness. 9 mL of normal saline was added to 1 g of tissue, which was then ground using a Tissuelyser (Shanghai Jingxin Industrial Development Co., Ltd., Shanghai, China) at 55 Hz for 60 seconds, followed by centrifuging at 8000 rpm for 10 minutes at 4° C.
The supernatant was collected, and the extracted protein was used for ELISA analysis using standard ELISA test kits and an ELISA reader (SH-1000 Hitachi, Japan). Vascular endothelial growth factor (VEGF), transforming growth factor beta 1 (TGF-β1) and hydroxyproline (Hyp) were assayed. The ELISA kits were purchased from Beijing 4A Biotech Co., Ltd. (Beijing, China).
A general note: ELISA stands for enzyme-linked immunosorbent assay.

Setting [4] is: Day 0, topical 50 μL/wound once daily, rhEGF 1285 IU/mouse, Compound A 3.09 μg/mouse, Compound B 3.05 μg/mouse.

Turning to “Ala-Lys-Pro-Ser-Tyr-Hyp-Hyp-Thr-DOPA-Lys (AKPSY[3Hyp][Hyp]T[Dopa]K; listed as Mytilus edulis) [Compound A]”, the Fibroplastic proliferation score in assay [1] is reported as 0.2. This compound came in with an Inflammation score in assay [1] of 1.6. Also, the “Edema Score” value in assay [1] is on record as 1.8. Further, the Sum in assay [1] worked out at 3.4. Moreover, the “ratio of remaining wound area of initial wound” value came to 77.2 ± 4.1% in assay [2] (setting [4]); 100 ± 17.1% in assay [2] (Day 1, topical once daily); 81.2 ± 11.2% in assay [2] (Day 2, topical once daily); 74.2 ± 0.9% in assay [2] (Day 3, topical once daily); 60.9 ± 7.3% in assay [2] (Day 4, topical once daily); 50.5 ± 11.3% in assay [2] (Day 5, topical once daily). Besides, the “ratio of remaining wound area of initial wound” value in assay [2] (Day 6, topical once daily) worked out at 45.8 ± 4.7%. For the same compound, the “wound Hyp content (Mean)” value was found to be 3.676 µg/mg in assay [3] (Day 4) and 2.694 µg/mg in assay [3] (Day 7). Further, the “TGF-β1 content (Mean)” value in assay [3] (Day 4) stood at 11866.2 pg/g; in assay [3] (Day 7), 18074.8 pg/g.
In assay [1], `CC(N)C(=O)NC(CCCCN)C(=O)N1CCCC1C(=O)NC(CO)C(=O)NC(Cc1ccc(O)cc1)C(=O)N1CC(O)CC1C(=O)N1CC(O)CC1C(=O)NC(C(=O)NC(Cc1ccc(O)cc1)C(=O)NC(CCCCN)C(=O)O)C(C)O` (stereo not drawn) [Compound B, Ala-Lys-Pro-Ser-Tyr-Hyp-Hyp-Thr-Tyr-Lys] (H-AKPSY[Hyp][Hyp]TYK-OH; configuration not given here) registered a Fibroplastic proliferation score of 1.00. Also, the Inflammation score in assay [1] came out at 1.6. Also, the “Edema Score” value in assay [1] is given as 1.2. The compound further had a Sum in assay [1] of 2.8. Besides, the “ratio of remaining wound area of initial wound” value in assay [2] (setting [4]) is listed as 79.4 ± 3.4%; in assay [2] (Day 1, topical once daily), 100 ± 4.5%; in assay [2] (Day 2, topical once daily), 96.7 ± 5.6%; in assay [2] (Day 3, topical once daily) it was 76.7 ± 4.8%; in assay [2] (Day 4, topical once daily), 66.5 ± 1.4%; in assay [2] (Day 5, topical once daily), 55.8 ± 1.3%. Besides, the “ratio of remaining wound area of initial wound” value in assay [2] (Day 6, topical once daily) is on record as 51.9 ± 1.7%. Further, the improvement rate entry in assay [2] (Day 4, versus model group) is listed as “about 10%”. Moreover, the “wound Hyp content (Mean)” value was 2.039 µg/mg in assay [3] (Day 4) and 2.810 µg/mg in assay [3] (Day 7). Moreover, the entries for the “TGF-β1 content (Mean)” value in assay [3] (Day 4) and in assay [3] (Day 7) were 20571.8 pg/g and 18659.6 pg/g, respectively. Moreover, the “increase of VEGF production in the wounded tissue” value in assay [3] (in comparison with model group) is on record as “about 56.7%”.
